Assay: Stability of milled and unmilled Compound 1A in combination with calcium carbonate, HPLC
Format: physicochemical
Settings: mixed with calcium carbonate, open vials at 50° C. and 75% relative humidity
Description: Samples containing 1092 mg of calcium carbonate and […] Compound 1A (either milled or unmilled) were prepared and weighed into small amber glass bottles. Samples were stored in open vials at 50° C. and 75% relative humidity. The samples were then removed after two or four weeks and stored at room temperature for up to four days prior to being analysed and were stored in open vials at 50° C. and 75% RH. The blends of Compound 1A and calcium carbonate were transferred to a glass volumetric flask and diluted to a volume of 10 ml or 100 ml with a 0.05% trifluoroacetic acid (TFA) solution in 50/50 acetonitrile/water to provide a 1 mg/ml solution of Compound 1A. The solution was stirred using a magnetic stirrer for 20 minutes then left for 5 minutes before 1 ml aliquots were taken using a plastic syringe. The aliquots were filtered through a 0.45 μm syringe filter into amber glass vials for HPLC analysis.

Measured: area % of Compound 2A compared to Compound 1A

CC(C)c1cc(Oc2c(Br)cc(NC(=O)CC(=O)O)cc2Br)ccc1O [Compound 1A, 3-[[3,5-Dibromo-4-[4-hydroxy-3-(1-methylethyl)-phenoxy]-phenyl]-amino]-3-oxopropanoic acid]
0.2 area %: milled, 2 weeks | milled, 4 weeks | unmilled, 2 weeks | unmilled, 4 weeks
